Patent US20220047494A1, “ANTIBACTERIAL, DEODORIZATION, EASING OF ACNE AND ATOPY OR SKIN CALMING-FUNCTIONAL COMPOSITION FOR Y-ZONE CLEANLINESS CONTAINING QUERCUS ACUTISSIMA SAP AND ZINC RICINOLEATE” (MEDICLASSIC.CO.LTD, priority 2020, published 2022)

Test system: Staphylococcus epidermidis (KTTC12228)
Experiment: Paper disk diffusion antibacterial activity
Type: cell-based
Details: paper disk 8 mm, mean ± SD (n = 3)
Source text: In Experimental Example according to the present invention, Propionibacterium acnes (KCTC3314), which is an acne-causing pathogen, Candida albicans (ATCC 10231), which is a yeast that causes inflammatory or bacterial skin diseases, and Staphylococcus epidermidis (KTTC12228), which is gram-positive skin flora, were used. Propionibacterium acnes (KCTC3314) was inoculated into reinforced clostridial (RC) medium, sealed using a […] system in an anaerobic culture tank, and then anaerobically cultured at 37° C. for two days. As an aerobic strain of Candida albicans (ATCC 10231), Sabaurd Dextrose Agar (Difco. USA) was used, inoculated with the bacteria, and cultured in an incubator at 25° C. for 24 hours. As an aerobic strain, Staphylococcus epidermidis (KTTC12228) was inoculated into Mueller-Hinton medium and cultured at 37° C. for 24 hours before use. With respect to the ingredients according to Preparation Example and Comparative Preparation Example, an antibacterial activity against Staphylococcus epidermidis (KTC12228) was measured by using a paper disk diffusion method. Specifically, the evaluation of antibacterial activity against Staphylococcus epidermidis (KTTC12228), which is a secondary acne-causing pathogen, was performed by carrying out a cultivation with Muller-Hinton medium at 37° C. for 24 hours, and evenly spreading a bacterial suspension adjusted at a constant concentration (absorbance of 0.5 at an optical density of 620 nm) on an RC agar plate using a sterile cotton swab. After that, the plate was dried and a paper disk (Φ 8 mm, […]. USA) was placed on the surface of the plate inoculated with the strain, after which samples according to Preparation Example 2 and Comparative Preparation Examples 1 to 4, the positive control tetracycline and a mixed sample of Preparation Examples 1 and 2 (6:4) were absorbed thereon for each concentration. The sample-treated plate was cultured in an anaerobic culture tank for three days using the […] system, after which the antibacterial activity was measured by the size of the inhibition zone around the disk, and the results thereof are shown in table 2 below, respectively.

`CN(C)[C@@H]1C(O)=C(C(N)=O)C(=O)[C@@]2(O)C(O)=C3C(=O)c4c(O)cccc4[C@@](C)(O)[C@H]3C[C@@H]12` [Tetracycline, tetracycline] was tested, and the zone of inhibition at 1000 µg/disc (Staphylococcus epidermidis, concentration 1 mg, read-out: Zone of inhibition (diameter in mm)) was about 12 mm, the zone of inhibition at 5000 µg/disc (Staphylococcus epidermidis, concentration 5 mg, read-out: Zone of inhibition (diameter in mm)) was about 14 mm and the “Zone of inhibition (diameter in mm)” value (concentration 1 mg) was 12.82 ± 0.43 mm. The “Zone of inhibition (diameter in mm)” value (concentration 5 mg) was 14.92 ± 0.23 mm.
